Values quoted from earlier work as cited in patent US9968621B2, “Parenteral compositions of celecoxib” (Dr. Reddy's Laboratories Ltd., priority 2014, dated 2018).

Details: after an oral dose

Compound: Cc1ccc(-c2cc(C(F)(F)F)nn2-c2ccc(S(N)(=O)=O)cc2)cc1 [Celecoxib, 4-[5-(4-methylphenyl)-3-(trifluoromethyl)-1H-pyrazol-1-yl] benzenesulfonamide]
- Time of peak plasma levels: approximately 3 hrs
